IC50 data for 27 molecules are collected here from patent US20200016159A1, “N3-CYCLICALLY SUBSTITUTED THIENOURACILS AND USE THEREOF” (Bayer Aktiengesellschaft, priority 2016, published 2020).

This test has as its target T1, human adenosine A2b receptor (Homo sapiens, UniProt P29275).
T1 sequence (P29275 1-332): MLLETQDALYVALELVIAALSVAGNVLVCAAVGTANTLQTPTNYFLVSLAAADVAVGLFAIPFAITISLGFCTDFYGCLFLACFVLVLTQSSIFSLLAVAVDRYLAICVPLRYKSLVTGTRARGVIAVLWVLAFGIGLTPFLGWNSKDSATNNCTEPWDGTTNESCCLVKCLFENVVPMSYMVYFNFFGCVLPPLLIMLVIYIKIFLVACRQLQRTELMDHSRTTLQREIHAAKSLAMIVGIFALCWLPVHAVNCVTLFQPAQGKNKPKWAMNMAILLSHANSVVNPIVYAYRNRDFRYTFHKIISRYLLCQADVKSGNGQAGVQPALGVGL
Nature of the test: Cellular in vitro reporter gene test for A2b receptor activity (antagonism of NECA). The following applies: recombinant CHO-K1 cells, CRE-luciferase reporter, co-incubation with EC50 concentration of NECA, 3 hours. The test is classed as cell-based. On the set-up: expressed in transfected cells; host or cells: CHO-K1 (Chinese hamster ovary) with CRE-luciferase reporter. In a few lines:
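CHO-K1 cells expressing recombinant human A2b receptor plus a CRE-driven firefly luciferase reporter. Compounds co-incubated with NECA at its same-day EC50 concentration; luminescence read 3 hours after NECA addition. IC50 values, sometimes means of several determinations rounded to two significant figures.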

As for `Cc1c(Cn2nc[nH]c2=O)sc2c1c(=O)n(C1CC(F)(F)C1)c(=O)n2CCC(F)(F)F` [Example 124, 3-(3,3-Difluorocyclobutyl)-5-methyl-6-[(5-oxo-4,5-dihydro-H-1,2,4-triazol-1-yl)methyl]-1-(3,3,3-trifluoropropyl)thieno[2,3-d]pyrimidine-2,4(1H,3H)-dione], the concentration for half-maximal inhibition (IC50) amounted to 26 nM.

For the molecule `Cc1c(Cn2nc[nH]c2=O)sc2c1c(=O)n(C1CC1)c(=O)n2CCCC#N` [Example 212, 4-{3-Cyclopropyl-5-methyl-2,4-dioxo-6-[(5-oxo-4,5-dihydro-1H-1,2,4-triazol-1-yl)methyl]-3,4-dihydrothieno[2,3-d]pyrimidin-1 (2H)-yl}butanenitrile], the half-inhibitory concentration (IC50) was determined as 240 nM.

In the case of `Cc1c(CN2CCNC2=O)sc2c1c(=O)n(C1CC1C)c(=O)n2CC1CCOC1` (single isomer, unassigned) [Example 292, 5-Methyl-3-(2-methylcyclopropyl)-6-[(2-oxoimidazolidin-1-yl)methyl]-1-(tetrahydrofuran-3-ylmethyl)thieno[2,3-d]pyrimidine-2,4(1H,3H)-dione], the concentration for half-maximal inhibition (IC50) stood at 150 nM.

`COC(=O)N=C1NCCN1Cc1sc2c(c1C)c(=O)n(C1CC1)c(=O)n2CC1CCCO1` (racemic) [Example 42, Methyl [1-{[3-cyclopropyl-5-methyl-2,4-dioxo-1-(tetrahydrofuran-2-ylmethyl)-1,2,3,4-tetrahydrothieno[2,3-d]pyrimidin-6-yl]methyl}imidazolidin-2-ylidene]carbamate]: the IC50 worked out at 10 nM.

For the molecule `COCCn1c(=O)n([C@H]2C[C@@H](OC)C2)c(=O)c2c(C)c(CN3CCNC3=O)sc21` [Example 159, 3-(cis-3-Methoxycyclobutyl)-1-(2-methoxyethyl)-5-methyl-6-[(2-oxoimidazolidin-1-yl)methyl]thieno[2,3-d]pyrimidine-2,4(1H,3H)-dione], the IC50 stood at 200 nM.

As for `CCC1CC1n1c(=O)c2c(C)c(CN3CCNC3=O)sc2n(CCOC)c1=O` (racemic) [Example 300, 3-(2-Ethylcyclopropyl)-1-(2-methoxyethyl)-5-methyl-6-[(2-oxoimidazolidin-1-yl)methyl]thieno[2,3-d]pyrimidine-2,4(1H,3H)-dione], the 50% inhibitory concentration (IC50) amounted to 13 nM.

As for `Cc1c(Cn2[nH]ccc2=O)sc2c1c(=O)n(C1CCC1)c(=O)n2CCC(F)(F)F` [Example 312, 3-Cyclobutyl-5-methyl-6-[(5-oxo-2,5-dihydro-1H-pyrazol-1-yl)methyl]-1-(3,3,3-trifluoropropyl)thieno[2,3-d]pyrimidine-2,4(1H,3H)-dione], the IC50 stood at 15 nM.

For the molecule `CCc1c(CN2CCNC2=O)sc2c1c(=O)n(C1(C)CC1)c(=O)n2CCOC` [Example 219, 5-Ethyl-1-(2-methoxyethyl)-3-(1-methylcyclopropyl)-6-[(2-oxoimidazolidin-1-yl)methyl]thieno[2,3-d]pyrimidine-2,4(1H,3H)-dione], the concentration for half-maximal inhibition (IC50) turned out to be 400 nM.

On to `Cc1c(Cn2nc[nH]c2=O)sc2c1c(=O)n(C1CC1)c(=O)n2C` [Example 2, 3-Cyclopropyl-1,5-dimethyl-6-[(5-oxo-4,5-dihydro-1H-1,2,4-triazol-1-yl)methyl]thieno[2,3-d]pyrimidine-2,4(1H,3H)-dione], for which the IC50 turned out to be 81 nM.

As to `CCCn1c(=O)n([C@H]2C[C@@H]2C)c(=O)c2c(C)c(Cn3nc[nH]c3=O)sc21` [Example 317, 5-Methyl-3-[(1S,2S)-2-methylcyclopropyl]-6-[(5-oxo-4,5-dihydro-1H-1,2,4-triazol-1-yl)methyl]-1-propylthieno[2,3-d]pyrimidine-2,4(1H,3H)-dione], the IC50 turned out to be 19 nM.

With `Cc1c(CN2CCNC2=O)sc2c1c(=O)n(C1CC1)c(=O)n2CCOC(F)(F)F` [Example 35, 3-Cyclopropyl-5-methyl-6-[(2-oxoimidazolidin-1-yl)methyl]-1-[2-(trifluoromethoxy)ethyl]thieno[2,3-d]pyrimidine-2,4(1H,3H)-dione], the half-maximal inhibitory concentration (IC50) was determined as 1.8 nM.

In the case of `COCCn1c(=O)n([C@H]2C[C@@H]2C)c(=O)c2c(C)c(Cn3nc[nH]c3=O)sc21` [Example 325, 1-(2-Methoxyethyl)-5-methyl-3-[(1S,2S)-2-methylcyclopropyl]-6-[(5-oxo-4,5-dihydro-1H-1,2,4-triazol-1-yl)methyl]thieno[2,3-d]pyrimidine-2,4(1H,3H)-dione], the IC50 amounted to 43 nM.

Take `Cc1c(CN2CCNC2=O)sc2c1c(=O)n(C1CC1)c(=O)n2C` [Example 1, 3-Cyclopropyl-1,5-dimethyl-6-[(2-oxoimidazolidin-1-yl)methyl]thieno[2,3-d]pyrimidine-2,4(1H,3H)-dione]: the half-maximal inhibitory concentration (IC50) came to 20 nM.

`Cc1c(Cn2nc[nH]c2=O)sc2c1c(=O)n(C1CC1)c(=O)n2CC1CCCC1(F)F` (single isomer, unassigned) [Example 208, 3-Cyclopropyl-1-[(2,2-difluorocyclopentyl)methyl]-5-methyl-6-[(5-oxo-4,5-dihydro-1H-1,2,4-triazol-1-yl)methyl]thieno[2,3-d]pyrimidine-2,4(1H,3H)-dione]: the IC50 was determined as 10 nM.

As to `COC(=O)N=C1NCCN1Cc1sc2c(c1C)c(=O)n(C1CC1)c(=O)n2CC1CCCO1` (single isomer, unassigned) [Example 43, Methyl [1-{[3-cyclopropyl-5-methyl-2,4-dioxo-1-(tetrahydrofuran-2-ylmethyl)-1,2,3,4-tetrahydrothieno[2,3-d]pyrimidin-6-yl]methyl}imidazolidin-2-ylidene]carbamate], the IC50 amounted to 12 nM.

For `Cc1c(Cn2nc[nH]c2=O)sc2c1c(=O)n(C1CC1)c(=O)n2CC1CCC(F)(F)C1` (racemic) [Example 209, 3-Cyclopropyl-1-[(3,3-difluorocyclopentyl)methyl]-5-methyl-6-[(5-oxo-4,5-dihydro-1H-1,2,4-triazol-1-yl)methyl]thieno[2,3-d]pyrimidine-2,4(1H,3H)-dione], the IC50 was found to be 200 nM.

As to `Cc1c(CN2CCNC2=O)sc2c1c(=O)n([C@H]1C[C@@H]1C)c(=O)n2CC1CCC(F)(F)C1` (single isomer, unassigned) [Example 256], the IC50 came to 5.5 nM.

Regarding `CCC1CC1n1c(=O)c2c(C)c(Cn3nc[nH]c3=O)sc2n(CCOC)c1=O` (racemic) [Example 303], the IC50 came out at 71 nM.

With `CO[C@H]1C[C@H](n2c(=O)c3c(C)c(Cn4nc[nH]c4=O)sc3n(CCC(F)(F)F)c2=O)C1` [Example 148, 3-(trans-3-Methoxycyclobutyl)-5-methyl-6-[(5-oxo-4,5-dihydro-1H-1,2,4-triazol-1-yl)methyl]-1-(3,3,3-trifluoropropyl)thieno[2,3-d]pyrimidine-2,4(1H,3H)-dione], the IC50 came out at 66 nM.

Take `Cc1c(Cn2nc[nH]c2=O)sc2c1c(=O)n(C1(C)CC1)c(=O)n2CC#N` [Example 69, [5-Methyl-3-(1-methylcyclopropyl)-2,4-dioxo-6-[(5-oxo-4,5-dihydro-1H-1,2,4-triazol-1-yl)methyl]-3,4-dihydrothieno[2,3-d]pyrimidin-1(2H)-yl]acetonitrile]: the IC50 was found to be 120 nM.

Turning to `Cc1c(CN2CCNC2=O)sc2c1c(=O)n(C1CC1)c(=O)n2C[C@H]1CCCO1` [Example 38, 3-Cyclopropyl-5-methyl-6-[(2-oxoimidazolidin-1-yl)methyl]-1-[(2R)-tetrahydrofuran-2-ylmethyl]thieno[2,3-d]pyrimidine-2,4(1H,3H)-dione], the IC50 came out at 33 nM.

Regarding `Cc1c(CN2CCNC(=O)C2=O)sc2c1c(=O)n(C1CC1)c(=O)n2CCCF` [Example 8, 3-Cyclopropyl-6-[(2,3-dioxopiperazin-1-yl)methyl]-1-(3-fluoropropyl)-5-methylthieno[2,3-d]pyrimidine-2,4(1H,3H)-dione], the IC50 was determined as 44 nM.

Regarding `Cc1c(Cn2nc[nH]c2=O)sc2c1c(=O)n(C1CC1C)c(=O)n2CCOC(F)(F)F` (single isomer, unassigned) [Example 278, 5-Methyl-3-(2-methylcyclopropyl)-6-[(5-oxo-4,5-dihydro-1H-1,2,4-triazol-1-yl)methyl]-1-[2-(trifluoromethoxy)ethyl]thieno[2,3-d]pyrimidine-2,4(1H,3H)-dione], the IC50 was found to be 1.6 nM.

Turning to `Cc1c(Cn2[nH]ccc2=O)sc2c1c(=O)n(C1(C)CC1)c(=O)n2CCC(F)(F)F` [Example 215, 5-Methyl-3-(1-methylcyclopropyl)-6-[(5-oxo-2,5-dihydro-1H-pyrazol-1-yl)methyl]-1-(3,3,3-trifluoropropyl)thieno[2,3-d]pyrimidine-2,4(1H,3H)-dione], the IC50 stood at 73 nM.

As to `CCCn1c(=O)n(C2CC2C)c(=O)c2c(C)c(CN3CCNC3=O)sc21` (single isomer, unassigned) [Example 228, 5-Methyl-3-(2-methylcyclopropyl)-6-[(2-oxoimidazolidin-1-yl)methyl]-1-propylthieno[2,3-d]pyrimidine-2,4(1H,3H)-dione], the 50% inhibitory concentration (IC50) was determined as 5.8 nM.

Regarding `Cc1c(CN2CCNC2=O)sc2c1c(=O)n(C1CC1C)c(=O)n2CC(F)(F)F` (single isomer, unassigned) [Example 239, 5-Methyl-3-(2-methylcyclopropyl)-6-[(2-oxoimidazolidin-1-yl)methyl]-1-(2,2,2-trifluoroethyl)thieno[2,3-d]pyrimidine-2,4(1H,3H)-dione], the IC50 is 4.7 nM.

For `CCCCn1c(=O)n(C2CC2)c(=O)c2c(C)c(Cn3nc[nH]c3=O)sc21` [Example 4, 1-Butyl-3-cyclopropyl-5-methyl-6-[(5-oxo-4,5-dihydro-H-1,2,4-triazol-1-yl)methyl]thieno[2,3-d]pyrimidine-2,4(1H,3H)-dione], the half-maximal inhibitory concentration (IC50) turned out to be 34 nM.
